Results from patent US7419972B2, “2-substituted estra-1,3,5(10)-trien-17-ones as inhibitors of 17β-hydroxy steroid dehydrogenase type 1” (Schering AG, priority 2004, dated 2008).

These molecules were tested against T1, human 17β-hydroxy steroid dehydrogenase type 1 (Homo sapiens, UniProt P14061) (assay: Inhibition of the activity of human 17β-hydroxy steroid dehydrogenase type 1 (3H-labeled substrate conversion, HPLC)). Conditions: not given.
T1 construct: made in house; host or cells: E. coli (suspension of bacterial pellets, enzyme not purified)
T1 sequence (P14061 1-328): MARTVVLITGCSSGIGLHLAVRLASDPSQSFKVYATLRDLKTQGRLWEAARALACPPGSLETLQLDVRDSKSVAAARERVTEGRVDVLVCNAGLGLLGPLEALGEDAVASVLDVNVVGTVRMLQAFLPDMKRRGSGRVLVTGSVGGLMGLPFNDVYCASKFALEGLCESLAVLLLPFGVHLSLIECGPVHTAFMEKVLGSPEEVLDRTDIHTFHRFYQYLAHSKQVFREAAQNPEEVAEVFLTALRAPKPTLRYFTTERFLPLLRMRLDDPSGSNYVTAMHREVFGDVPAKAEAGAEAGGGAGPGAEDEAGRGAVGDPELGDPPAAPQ
Type: biochemical
Excerpt: The test method is well described in the literature [Adamski, J., Sierralta, W. D., Jungblut, P. W., Acta Endocrinol (Copenh.) 121(2) (1989), 161-7] and is depicted below.
Human 17β-hydroxy steroid dehydrogenases (17β-HSDs) are over-expressed in E. coli bacteria as His-Tag proteins or as GST-fusion proteins. The suspensions of the bacterial pellets in isotonic common salt solution are used for the determination of enzyme activities of the 17β-HSDs or for the study of their influence by potential inhibitors (estrogen derivatives).
The measurements are made in double determination and, if necessary, at various concentrations of potential inhibitors (e.g., in determining the IC50 values). In addition to the target enzyme 17β-HSD1, other steroid-metabolizing enzymes are included in the test to study cross reactivities of estrogen derivatives.
The incubation of the samples is carried out at 37° C. in a water bath while being shaken, such that in the control (without substances to be tested), a conversion of about 30% is achieved.
The separation of radiolabeled substrate and product is then carried out, after extraction with 1 ml of reversed phase-(RP-18)-cartridges, by means of HPLC on an RP18 column with acetonitrile:water 1:1 (v/v) as a mobile phase. The radioactivity is detected with the aid of a flow-scintillation counter.
The evaluation of the substrate conversion with and without substances to be tested is performed by the integration of the substrate and product peaks. The conversion of the control normalized to 100% conversion.

| Structure (SMILES) | IC50 [nM] |
| --- | --- |
| C[C@]12CC[C@@H]3c4cc(Cl)c(O)cc4CC[C@H]3[C@@H]1C[C@@H](F)C2=O [Compound 3, 2-Chloro-16α-fluoro-3-hydroxy-estra-1,3,5(10)-trien-17-one] | 101 |
| C[C@]12CC[C@@H]3c4cc(Cl)c(O)cc4CC[C@H]3[C@@H]1C[C@H](F)C2=O [Compound 4, 2-Chloro-16β-fluoro-3-hydroxy-estra-1,3,5(10)-trien-17-one] | 35 |
| C[C@]12CC[C@@H]3c4cc(CCc5ccccc5)c(O)cc4CC[C@H]3[C@@H]1CCC2=O [Compound 21, 3-Hydroxy-2-(2′-phenyl-ethyl)estra-1,3,5(10)-trien-17-one] | 47 |

Same assay, conditions: enzyme over-expressed in E. coli, bacterial suspension, 37° C.; read-out: 17βHSD1 IC50

| Structure (SMILES) | IC50 [nM] |
| --- | --- |
| CC[C@]12CC[C@@H]3c4cc(Cl)c(O)cc4CC[C@H]3[C@@H]1CCC2=O [Compound 1, 2-Chloro-3-hydroxy-18a-homoestra-1,3,5(10)-trien-17-one] | 121 |
| C[C@]12CC[C@@H]3c4cc(Cl)c(O)cc4CC[C@H]3[C@@H]1CCC2=O [Compound 11, 2-Chloro-3-hydroxy-estra-1,3,5(10)-trien-17-one] | 140 |
| C[C@]12CC[C@@H]3c4cc(C#N)c(O)cc4CC[C@H]3[C@@H]1CCC2=O [Compound 12, 2-Cyano-3-hydroxy-estra-1,3,5(10)-trien-17-one] | 148 |
| C[C@]12CC[C@@H]3c4cc(C#Cc5ccccc5)c(O)cc4CC[C@H]3[C@@H]1CCC2=O [Compound 19, 3-Hydroxy-2-phenylethinyl-estra-1,3,5(10)-trien-17-one] | 56 |
| CCc1cc2c(cc1O)CC[C@@H]1[C@@H]2CC[C@]2(C)C(=O)CC[C@@H]12 [Compound 23, 2-Ethyl-3-hydroxy-estra-1,3,5(10)-trien-17-one] | 89 |
